Laboratory results taken from patent US20090136979A1, “Class IIA Histone Deacetylase (HDAC) Substrate” (ISTITUTO DI RICERCHE DI BIOLOGIA MOLECOLARE P. ANG, priority 2005, published 2009).

How the values were obtained:
[1] = molecular target: T1, HDAC4-CD (Homo sapiens, UniProt P56524); experiment: Activity on Boc-L-Lys(ε-trifluoroacetyl)-MCA compared with Biomol standard substrate, HDAC4-CD; format: biochemical; conditions: FIG. 5
T1 construct: The HDAC4 C-terminal region from T-653 to L-1084; 6xHis; made in house; host or cells: E. coli BL21 Star (DE3)
T1 sequence (P56524 653-1084): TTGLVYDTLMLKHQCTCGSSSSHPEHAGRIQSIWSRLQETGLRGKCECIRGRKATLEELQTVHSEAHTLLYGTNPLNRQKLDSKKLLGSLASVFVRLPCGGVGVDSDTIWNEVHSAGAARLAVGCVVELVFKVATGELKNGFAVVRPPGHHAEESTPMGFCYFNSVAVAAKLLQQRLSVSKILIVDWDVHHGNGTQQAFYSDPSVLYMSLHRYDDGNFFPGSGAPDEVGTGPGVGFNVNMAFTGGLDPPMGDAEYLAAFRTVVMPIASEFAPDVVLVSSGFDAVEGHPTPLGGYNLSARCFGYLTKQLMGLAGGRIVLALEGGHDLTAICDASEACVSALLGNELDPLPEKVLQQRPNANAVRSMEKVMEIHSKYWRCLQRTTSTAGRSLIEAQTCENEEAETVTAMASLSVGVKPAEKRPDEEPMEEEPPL
Excerpt: (§1) The activities measured on Boc-L-Lys(ε-trifluoroacetyl)-MCA were compared with activities on the Biomol standard substrate (not shown).

[2] = molecular target: T2, HDAC8 (Homo sapiens, UniProt Q9BY41); experiment: Activity on Boc-L-Lys(ε-trifluoroacetyl)-MCA compared with Biomol standard substrate, HDAC8; format: biochemical; conditions: HDAC8, FIG. 5
T2 sequence (Q9BY41 1-377): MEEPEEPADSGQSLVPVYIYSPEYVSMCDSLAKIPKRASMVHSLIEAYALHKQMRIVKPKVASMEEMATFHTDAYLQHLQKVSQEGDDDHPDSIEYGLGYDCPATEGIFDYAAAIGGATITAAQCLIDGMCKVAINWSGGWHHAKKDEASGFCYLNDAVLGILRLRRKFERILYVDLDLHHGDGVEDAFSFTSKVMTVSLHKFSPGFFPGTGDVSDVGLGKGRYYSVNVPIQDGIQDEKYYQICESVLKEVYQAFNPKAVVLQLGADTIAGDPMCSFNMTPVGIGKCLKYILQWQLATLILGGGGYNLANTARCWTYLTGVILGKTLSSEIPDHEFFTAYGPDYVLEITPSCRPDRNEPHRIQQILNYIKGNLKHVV
Excerpt: as §1

[3] = molecular target: HDAC3 (Homo sapiens, UniProt O15379); experiment: Activity on Boc-L-Lys(ε-trifluoroacetyl)-MCA compared with Biomol standard substrate, HDAC3; format: biochemical; conditions: HDAC3, FIG. 5
Chain of HDAC3 (O15379 whole entry): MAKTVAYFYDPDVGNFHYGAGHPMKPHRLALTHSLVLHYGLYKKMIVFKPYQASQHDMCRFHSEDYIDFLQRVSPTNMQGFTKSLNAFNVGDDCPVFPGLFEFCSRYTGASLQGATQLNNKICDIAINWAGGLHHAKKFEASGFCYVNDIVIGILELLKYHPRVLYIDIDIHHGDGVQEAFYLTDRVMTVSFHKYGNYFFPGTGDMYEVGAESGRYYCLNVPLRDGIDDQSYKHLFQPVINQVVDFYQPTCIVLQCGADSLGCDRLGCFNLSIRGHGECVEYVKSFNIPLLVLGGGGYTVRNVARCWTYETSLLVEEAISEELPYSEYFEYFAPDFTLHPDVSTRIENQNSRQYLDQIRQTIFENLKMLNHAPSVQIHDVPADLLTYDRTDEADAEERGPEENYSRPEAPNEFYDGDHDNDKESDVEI
Chain of HDAC3 (Q9Y618 whole entry partner): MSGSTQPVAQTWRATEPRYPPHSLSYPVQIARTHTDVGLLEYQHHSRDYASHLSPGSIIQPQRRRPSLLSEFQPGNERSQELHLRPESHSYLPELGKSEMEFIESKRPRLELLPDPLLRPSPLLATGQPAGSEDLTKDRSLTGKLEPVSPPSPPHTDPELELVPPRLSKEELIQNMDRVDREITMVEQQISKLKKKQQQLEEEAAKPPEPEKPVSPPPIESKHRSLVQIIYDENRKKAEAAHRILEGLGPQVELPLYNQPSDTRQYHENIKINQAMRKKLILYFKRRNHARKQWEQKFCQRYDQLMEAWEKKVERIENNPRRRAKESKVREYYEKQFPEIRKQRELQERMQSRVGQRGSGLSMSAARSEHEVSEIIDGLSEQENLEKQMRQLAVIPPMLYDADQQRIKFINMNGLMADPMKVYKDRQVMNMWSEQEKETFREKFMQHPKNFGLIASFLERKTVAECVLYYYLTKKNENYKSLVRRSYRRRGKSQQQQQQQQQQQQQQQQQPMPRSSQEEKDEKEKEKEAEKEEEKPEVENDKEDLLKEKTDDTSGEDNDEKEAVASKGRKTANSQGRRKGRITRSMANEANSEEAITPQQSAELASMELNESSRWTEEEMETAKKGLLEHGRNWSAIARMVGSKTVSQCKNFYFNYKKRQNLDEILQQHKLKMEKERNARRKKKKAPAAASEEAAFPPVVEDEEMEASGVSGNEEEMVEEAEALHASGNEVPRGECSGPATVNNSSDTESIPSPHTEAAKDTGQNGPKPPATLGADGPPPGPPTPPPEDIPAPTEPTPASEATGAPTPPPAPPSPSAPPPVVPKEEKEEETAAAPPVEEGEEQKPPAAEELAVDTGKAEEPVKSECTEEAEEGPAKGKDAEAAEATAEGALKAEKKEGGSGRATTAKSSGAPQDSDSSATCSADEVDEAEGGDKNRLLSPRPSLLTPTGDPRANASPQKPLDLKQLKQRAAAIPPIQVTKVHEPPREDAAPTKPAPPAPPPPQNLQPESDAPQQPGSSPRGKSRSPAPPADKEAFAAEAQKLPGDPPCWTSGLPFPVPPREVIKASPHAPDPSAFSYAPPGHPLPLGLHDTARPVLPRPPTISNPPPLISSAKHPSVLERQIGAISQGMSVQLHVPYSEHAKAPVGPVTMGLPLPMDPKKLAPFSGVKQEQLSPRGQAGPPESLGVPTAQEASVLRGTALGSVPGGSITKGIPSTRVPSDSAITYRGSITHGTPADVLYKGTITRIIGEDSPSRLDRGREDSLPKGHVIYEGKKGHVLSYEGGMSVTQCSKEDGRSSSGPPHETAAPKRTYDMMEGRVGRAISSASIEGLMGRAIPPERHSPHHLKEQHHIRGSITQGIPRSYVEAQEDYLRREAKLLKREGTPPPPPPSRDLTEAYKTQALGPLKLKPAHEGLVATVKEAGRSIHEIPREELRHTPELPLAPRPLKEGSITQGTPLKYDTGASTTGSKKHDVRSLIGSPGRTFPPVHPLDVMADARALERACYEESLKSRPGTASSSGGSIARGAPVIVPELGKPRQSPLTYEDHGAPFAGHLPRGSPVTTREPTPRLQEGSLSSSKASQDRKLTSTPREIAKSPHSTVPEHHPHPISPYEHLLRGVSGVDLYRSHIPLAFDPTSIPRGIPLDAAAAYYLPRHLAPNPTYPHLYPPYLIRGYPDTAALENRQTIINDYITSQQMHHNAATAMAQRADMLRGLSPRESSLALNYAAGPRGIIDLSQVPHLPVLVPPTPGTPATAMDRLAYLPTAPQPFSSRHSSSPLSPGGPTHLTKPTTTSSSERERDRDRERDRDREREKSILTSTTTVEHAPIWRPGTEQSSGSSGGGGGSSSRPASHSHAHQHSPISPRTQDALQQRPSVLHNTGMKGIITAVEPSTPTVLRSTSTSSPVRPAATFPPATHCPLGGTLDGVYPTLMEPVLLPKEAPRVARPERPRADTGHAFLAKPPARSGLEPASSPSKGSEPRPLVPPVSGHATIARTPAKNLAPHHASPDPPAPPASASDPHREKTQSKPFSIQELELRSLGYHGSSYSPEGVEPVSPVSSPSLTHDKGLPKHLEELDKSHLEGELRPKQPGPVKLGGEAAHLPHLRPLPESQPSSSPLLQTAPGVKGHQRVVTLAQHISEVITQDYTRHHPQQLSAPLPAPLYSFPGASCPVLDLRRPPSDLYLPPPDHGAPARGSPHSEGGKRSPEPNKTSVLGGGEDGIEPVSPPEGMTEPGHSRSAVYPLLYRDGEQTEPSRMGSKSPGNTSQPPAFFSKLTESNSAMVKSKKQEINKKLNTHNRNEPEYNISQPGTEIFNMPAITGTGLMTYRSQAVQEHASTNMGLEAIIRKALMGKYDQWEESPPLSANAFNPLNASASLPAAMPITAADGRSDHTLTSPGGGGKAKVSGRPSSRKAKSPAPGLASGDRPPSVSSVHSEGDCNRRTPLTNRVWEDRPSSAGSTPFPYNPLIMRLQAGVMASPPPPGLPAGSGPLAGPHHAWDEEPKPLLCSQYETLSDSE
Excerpt: as §1

[4] = molecular target: HDAC1 (Homo sapiens, UniProt Q13547); experiment: Activity on Boc-L-Lys(ε-trifluoroacetyl)-MCA compared with Biomol standard substrate, HDAC1; format: biochemical; conditions: HDAC1, FIG. 5
Chain of HDAC1 (Q13547 whole entry): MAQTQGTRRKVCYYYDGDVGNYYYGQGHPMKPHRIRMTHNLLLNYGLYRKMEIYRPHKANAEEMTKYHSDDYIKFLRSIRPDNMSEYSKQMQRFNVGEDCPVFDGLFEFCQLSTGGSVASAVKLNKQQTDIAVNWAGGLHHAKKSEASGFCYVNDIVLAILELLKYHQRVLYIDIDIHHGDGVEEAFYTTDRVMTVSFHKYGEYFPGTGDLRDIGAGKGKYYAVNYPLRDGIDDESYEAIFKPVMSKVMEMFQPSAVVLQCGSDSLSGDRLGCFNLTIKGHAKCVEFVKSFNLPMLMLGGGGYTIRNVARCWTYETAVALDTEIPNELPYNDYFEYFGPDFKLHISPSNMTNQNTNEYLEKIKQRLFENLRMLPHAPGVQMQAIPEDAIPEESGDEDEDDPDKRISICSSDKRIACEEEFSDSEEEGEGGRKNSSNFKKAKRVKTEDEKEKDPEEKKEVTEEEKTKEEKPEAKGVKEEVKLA
Excerpt: as §1

[5] = molecular target: T3, HDAC6 (Homo sapiens, UniProt Q9UBN7); experiment: Activity on Boc-L-Lys(ε-trifluoroacetyl)-MCA compared with Biomol standard substrate, HDAC6; format: biochemical; conditions: HDAC6, FIG. 5
T3 sequence (Q9UBN7 1-1215): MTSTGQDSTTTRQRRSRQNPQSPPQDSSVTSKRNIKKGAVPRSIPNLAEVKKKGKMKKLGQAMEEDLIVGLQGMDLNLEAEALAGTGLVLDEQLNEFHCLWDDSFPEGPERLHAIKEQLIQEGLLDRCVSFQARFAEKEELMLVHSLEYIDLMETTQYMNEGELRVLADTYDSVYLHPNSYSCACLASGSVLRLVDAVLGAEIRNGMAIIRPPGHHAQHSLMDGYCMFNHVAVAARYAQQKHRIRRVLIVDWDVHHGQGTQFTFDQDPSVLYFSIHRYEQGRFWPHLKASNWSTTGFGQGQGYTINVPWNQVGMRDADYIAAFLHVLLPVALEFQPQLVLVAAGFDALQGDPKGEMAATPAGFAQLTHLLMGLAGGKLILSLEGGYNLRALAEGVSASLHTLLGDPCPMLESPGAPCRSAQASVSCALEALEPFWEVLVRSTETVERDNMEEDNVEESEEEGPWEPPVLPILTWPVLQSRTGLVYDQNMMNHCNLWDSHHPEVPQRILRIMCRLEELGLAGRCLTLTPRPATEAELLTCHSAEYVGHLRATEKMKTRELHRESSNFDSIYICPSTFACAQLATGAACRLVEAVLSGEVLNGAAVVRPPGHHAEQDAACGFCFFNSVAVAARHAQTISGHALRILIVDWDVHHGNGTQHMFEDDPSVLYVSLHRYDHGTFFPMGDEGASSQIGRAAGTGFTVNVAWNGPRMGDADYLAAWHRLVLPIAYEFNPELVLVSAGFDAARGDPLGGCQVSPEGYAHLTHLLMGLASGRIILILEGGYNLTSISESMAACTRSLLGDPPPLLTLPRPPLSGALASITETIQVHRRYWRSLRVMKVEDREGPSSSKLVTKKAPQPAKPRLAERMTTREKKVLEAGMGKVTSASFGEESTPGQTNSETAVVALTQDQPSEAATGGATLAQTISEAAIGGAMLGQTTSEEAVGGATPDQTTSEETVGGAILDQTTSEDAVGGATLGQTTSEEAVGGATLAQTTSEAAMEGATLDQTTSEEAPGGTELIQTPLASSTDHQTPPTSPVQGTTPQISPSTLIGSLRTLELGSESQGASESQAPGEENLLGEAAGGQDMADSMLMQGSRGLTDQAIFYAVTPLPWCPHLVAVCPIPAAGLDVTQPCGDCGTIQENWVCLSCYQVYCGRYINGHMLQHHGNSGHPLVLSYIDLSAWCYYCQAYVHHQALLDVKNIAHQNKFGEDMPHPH
Excerpt: as §1

[6] = test system: HDAC from rat liver; conditions: cited from earlier work
[7] = molecular target: T2, HDAC8; conditions: substrate of (recombinant) human HDAC8; cited from earlier work
[8] = molecular target: T4, HDAC4-FLAG (Homo sapiens, UniProt P56524); format: binding; conditions: cross-linking assay
T4 construct: the full length HDAC4protein (HDAC4-FLAG) was also analysed; FLAG (C); made in house
T4 sequence (P56524 whole entry): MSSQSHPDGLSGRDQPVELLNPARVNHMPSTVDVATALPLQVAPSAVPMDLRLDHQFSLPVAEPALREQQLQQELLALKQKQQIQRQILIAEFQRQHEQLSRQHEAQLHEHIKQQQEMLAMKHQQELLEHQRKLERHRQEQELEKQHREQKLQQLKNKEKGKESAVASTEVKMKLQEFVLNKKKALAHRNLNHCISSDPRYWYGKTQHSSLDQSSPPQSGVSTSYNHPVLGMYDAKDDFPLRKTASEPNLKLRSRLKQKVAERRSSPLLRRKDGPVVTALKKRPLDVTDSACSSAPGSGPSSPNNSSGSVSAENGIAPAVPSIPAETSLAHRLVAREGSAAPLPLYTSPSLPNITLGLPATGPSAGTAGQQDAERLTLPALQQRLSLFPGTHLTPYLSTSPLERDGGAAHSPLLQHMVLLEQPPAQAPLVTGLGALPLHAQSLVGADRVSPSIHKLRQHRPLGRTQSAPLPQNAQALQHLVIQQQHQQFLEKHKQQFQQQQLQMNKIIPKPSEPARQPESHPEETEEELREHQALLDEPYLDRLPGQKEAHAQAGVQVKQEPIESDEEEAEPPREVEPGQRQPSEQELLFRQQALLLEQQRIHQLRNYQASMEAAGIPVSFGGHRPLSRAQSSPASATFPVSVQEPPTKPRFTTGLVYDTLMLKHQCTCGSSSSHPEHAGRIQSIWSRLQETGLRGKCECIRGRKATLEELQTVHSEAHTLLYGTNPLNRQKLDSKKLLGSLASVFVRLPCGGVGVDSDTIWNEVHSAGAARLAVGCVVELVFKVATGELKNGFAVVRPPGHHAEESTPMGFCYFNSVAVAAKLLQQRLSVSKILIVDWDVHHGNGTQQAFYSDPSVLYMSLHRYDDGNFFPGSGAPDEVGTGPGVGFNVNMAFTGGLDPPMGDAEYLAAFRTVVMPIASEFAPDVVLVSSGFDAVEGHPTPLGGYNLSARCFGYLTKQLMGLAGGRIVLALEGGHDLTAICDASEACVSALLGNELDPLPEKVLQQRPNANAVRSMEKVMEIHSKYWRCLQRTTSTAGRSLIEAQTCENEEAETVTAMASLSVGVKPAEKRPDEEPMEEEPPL

[9] = molecular target: T1, HDAC4-CD; experiment: Inhibition of HDAC4-CD activity on Lys-Trifluoro substrate; format: biochemical; conditions: HDAC4-CD 0.5 nM, FIG. 6
[10] = test system: HDAC4-FLAG; experiment: Enzymatic activity of HDAC4-FLAG, inhibition (Biomol assay kit and histone substrates); format: biochemical; conditions: FIG. 2

Cc1cc(=O)oc2ccc(NC(=O)[C@H](CCCCNC(=O)C(F)(F)F)NC(=O)OC(C)(C)C)cc12 [Boc-L-Lys(ε-trifluoroacetyl)-MCA, tert-Butyl [(1S)-5-(trifluoroacetylamino)-1-[[(4-methyl-2-oxo-2H-1-benzopyran-6-yl)amino]carbonyl]pentyl]-carbamic Acid Ester]
enzyme activity on substrate compared with Biomol standard substrate [1]: work better
enzyme activity on substrate compared with Biomol standard substrate [2]: work better
enzyme activity on substrate compared with Biomol standard substrate [3]: works with the same efficiency
enzyme activity on substrate compared with Biomol standard substrate [4]: did not work
enzyme activity on substrate compared with Biomol standard substrate [5]: did not work
conversion of substrate by rat liver HDAC ([6]; rat liver HDAC): did not convert
Km [7]: 247 µM

O=C(/C=C/c1ccc(CN(CCO)CCc2c[nH]c3ccccc23)cc1)NO [LAQ824]
binding to HDAC4-FLAG [8]: able to significantly and specifically bind
inhibition of HDAC4-CD activity on Lys-Trifluoro substrate [9]: inhibited

CC(=O)NCCCC[C@H](NC(=O)OC(C)(C)C)C(=O)Nc1ccc2c(C)cc(=O)oc2c1 [Boc-L-Lys(ε-acetyl)-MCA, reference compound]
Km ([6]; substrate of HDAC from rat liver (mixture of HDAC1, 2 and 3)): 3.7 µM

Nc1ccccc1NC(=O)c1ccc(CNC(=O)OCc2cccnc2)cc1 [MS27-275]
inhibition constants [10]: good inhibition constants
